Test results reported in PubChem BioAssay AID2202558 (NIEHS Division of Translational Toxicology (DTT)).
Results filed as inconclusive are left out. The source made the active and inactive calls. How the calls were made is not given here. *1 amine or outer side, *2 acyl side, *3 side chain or, on linkers, in order; H or OH if unused. Where a SMILES comes first, the peptide text is derived from it. Bridges are numbered along the chain shown (N, C = ends). Roman numbers before positions name the chains, in order. [ ]: non-standard residue; d: D form. Actinocin(9to1) = Cc1c2oc3c(C)ccc(C(=O)[*:1])c3nc-2c(C(=O)[*:2])c(N)c1=O; NMeV = CN[C@H](C(=O)O)C(C)C; Sar = CNCC(=O)O

The compounds below were run on mouse/rat in vivo micronucleus assay, summary call (assay: In vivo micronucleus assay summary data).
Text: The erythrocyte micronucleus test examines the ability of substances to cause chromosome damage in developing red blood cells inside bone marrow. A micronucleus (literally, "little nucleus") is a biomarker of structural chromosome damage (e.g., breaks) and changes in chromosome number (e.g., chromosome loss). If a chromosome is broken or fails to migrate properly with other chromosomes during cell division, the broken piece or lost chromosome will form a small (micro) nucleus of its own in one of the two daughter cells produced. Detection of chromosomal damage is important because it has been linked to birth defects, infertility, and certain diseases, including cancer.
The micronucleus test is performed in rapidly dividing cell populations, and bone marrow is a site of rapid blood cell division. Both bone marrow and peripheral blood samples can be examined for the presence of micronuclei in red blood cells.
Animals are treated with a test substance once or daily over a period of time, and the frequency of micronucleated cells is determined 24-48 hours after the final treatment, depending on the source of the cells (bone marrow or blood) that are examined and the treatment regimen.
The test subjects are rodents (rats or mice) that are exposed to the test substance, usually by oral gavage or injection. Typically, one to three daily treatments of the test substance are administered over a range of doses; the highest dose tested is near the maximum tolerated dose. Groups of negative and positive control animals are included for each test. Bone marrow samples are obtained from all animals 24 hours after the last treatment, and red blood cells are examined for the presence of micronuclei.
B. Peripheral Blood Tests
Micronucleus tests are performed on male and female rodents that are exposed to the test substance orally, dermally, or by inhalation in subchronic (e.g., 28 or 90 days) or short term (e.g., 48-72 hours) toxicity studies. 24 to 48 hours after the final exposure, peripheral blood samples are obtained and red blood cells are examined for the presence of micronuclei. Samples may be examined using standard slide scoring procedures or automated flow cytometric approaches. Since 2007, NTP has routinely relied on flow cytometry to evaluate the frequency of micronucleated cells in peripheral blood.
Peripheral blood micronucleus assays are typically integrated into all NTP toxicity studies, and they also lend themselves to serial monitoring of micronucleus frequencies over time, since blood samples can be obtained without the need to sacrifice the animals.
Blood or bone marrow samples from treated animals are compared to samples from untreated animals. With the slide-based approach for data acquisition, 1000-2000 cells were scored per animal. Using flow cytometric procedures to evaluate blood samples, 20,000 immature red blood cells and around one million mature red blood cells are examined per animal, resulting in a marked increase in the ability to detect small changes in the frequency of micronucleated red blood cells. The data is analyzed using statistical methods to determine if there is a significant increase in the frequency of cells containing micronuclei. Both dose-related responses and the magnitude of response for each independent dose group are considered during the evaluation of the data. For a positive test, both a significant dose response (trend) and at least one significant dose group are required. If only one of these measures is present, the test is determined to be questionable. The absence of either condition results in a negative test. The final conclusions for micronucleus tests are determined by considering the results of statistical analyses, reproducibility of any observed effects, and the magnitude of the effects. Ultimately, both the biological significance as well as statistical significance is considered when reaching a final conclusion.
[…]

| SMILES | outcome |
| --- | --- |
| Nc1ccc(Cc2ccc(N)cc2)cc1 | active; positive (nonstandard protocol) |
| C=CC=C | active; positive (nonstandard protocol) |
| CC#N | active; positive |
| C1CCC2CCCCC2C1 (stereo not drawn) | active; weakly positive |
| O=S(=O)([O-])[O-].[O]=[V+2] | inactive; negative |
| CC(=O)CC(C)=O | active; positive |
| Cc1cnc[nH]1 | inactive; negative |
| Cc1c2oc3c(C)ccc(C(=O)N[C@@H]4C(=O)N[C@H](C(C)C)C(=O)N5CCC[C@H]5C(=O)N(C)CC(=O)N(C)[C@@H](C(C)C)C(=O)O[C@@H]4C)c3nc-2c(C(=O)N[C@@H]2C(=O)N[C@H](C(C)C)C(=O)N3CCC[C@H]3C(=O)N(C)CC(=O)N(C)[C@@H](C(C)C)C(=O)O[C@@H]2C)c(N)c1=O (I: T[dV]P[Sar][NMeV] / II: T[dV]P[Sar][NMeV]; ester I:1-I:C, II:1-II:C; linker I:N-II:N via Actinocin(9to1)) | active; positive |
| C=CCOC(C)=O | active; weakly positive |
| C=CCO | inactive; negative |
| OCC1CO1 (stereo not drawn) | active; positive |
| CCC(=O)C(C)=O | inactive; negative |
| C=C(C#N)C(=O)OCC | inactive; negative |
| CC(=O)C(C)=O | inactive; negative |
| O=C(O)C(F)(F)C(F)(F)C(F)(F)C(F)(F)C(F)(F)C(F)(F)C(F)(F)F | active |
| Oc1ccc(/C=C/c2cc(O)cc(O)c2)cc1 | inactive; negative |
| C=CCc1cc(OC)c2c(c1)OCO2 | active; negative |
| CC[n+]1c(-c2ccccc2)c2cc(N)ccc2c2ccc(N)cc21 | inactive; negative |
| C[N+](C)(C)Cc1ccccc1 | active; positive |
| Nc1ccn([C@@H]2O[C@H](CO)[C@@H](O)[C@@H]2O)c(=O)n1 | active; positive |
| CC(O)COC(C)(C)C (stereo not drawn) | active; weakly positive |
| Nc1ccc(Cl)cc1N | active; positive |
| c1ccc(N=NNc2ccccc2)cc1 | active; positive |
| CCCCCC=CC=CC=O | active; equivocal |

| SMILES | outcome |
| --- | --- |
| C=COC(C)=O | active |
| O=C(O)C=Cc1ccc(O)c(O)c1 | active; positive |
| Nc1cc([N+](=O)[O-])ccc1O | inactive; negative |
| CC(C)N=C=NC(C)C | active; positive |
| CCCCCCc1ccc(O)cc1O | active; positive |
| CCCCC(CC)COC(=O)c1ccccc1C(=O)OCC(CC)CCCC (stereo not drawn) | active; positive |
| Cc1ncc[nH]1 | active; positive |
| c1cc(OCC2CO2)cc(OCC2CO2)c1 (stereo not drawn) | active; positive |
| O=C1c2ccccc2C(=O)c2ccccc21 | active; positive |
| CC(C)CON=O | active; positive |
| O=S(=O)(c1ccc(Cl)cc1)c1ccc(Cl)cc1 | active; positive |
| CC=Cc1ccc(O)c(OC)c1 | active; positive |
| O=NO | inactive; negative |
| CN(C)c1ccc(C(=C2C=CC(=[N+](C)C)C=C2)c2ccccc2)cc1 | inactive; negative |
| O=P1(N(CCCl)CCCl)NCCCO1 (stereo not drawn) | active; positive |
| C=CC(=O)NCCNC(=O)C=C | active; positive (nonstandard protocol) |
| C[C@]12CC[C@@H]3c4ccc(O)cc4CC[C@H]3[C@@H]1CC[C@@H]2O | inactive; negative |
| Nc1ccccc1 | active; positive |
| C=C(C)c1ccccc1 | active; positive |
| CCCOC(=O)c1cc(O)c(O)c(O)c1 | active; positive |
| CCN(N=O)C(N)=O | active; positive |
| Cc1c(N)cccc1N | active; positive |
| Oc1c(Cl)c(Cl)c(Cl)c(Cl)c1Cl | inactive; negative |
| Nc1ncnc2c1ncn2[C@H]1CC[C@@H](CO)O1 | active; positive |
